# Experimental data published in ChEMBL document CHEMBL1139030, “Inhibition of jack bean urease by organobismuth compounds” (Bioorg Med Chem Lett, 2006).
# The source made the active and inactive calls. The rule behind the calls is not given here.
# Molecular target: Urease (Canavalia ensiformis) (UniProt P07374)
# Experiment: Inhibitory activity against jack bean urease
# Sequence of UniProt P07374 (P07374 whole entry, looked up): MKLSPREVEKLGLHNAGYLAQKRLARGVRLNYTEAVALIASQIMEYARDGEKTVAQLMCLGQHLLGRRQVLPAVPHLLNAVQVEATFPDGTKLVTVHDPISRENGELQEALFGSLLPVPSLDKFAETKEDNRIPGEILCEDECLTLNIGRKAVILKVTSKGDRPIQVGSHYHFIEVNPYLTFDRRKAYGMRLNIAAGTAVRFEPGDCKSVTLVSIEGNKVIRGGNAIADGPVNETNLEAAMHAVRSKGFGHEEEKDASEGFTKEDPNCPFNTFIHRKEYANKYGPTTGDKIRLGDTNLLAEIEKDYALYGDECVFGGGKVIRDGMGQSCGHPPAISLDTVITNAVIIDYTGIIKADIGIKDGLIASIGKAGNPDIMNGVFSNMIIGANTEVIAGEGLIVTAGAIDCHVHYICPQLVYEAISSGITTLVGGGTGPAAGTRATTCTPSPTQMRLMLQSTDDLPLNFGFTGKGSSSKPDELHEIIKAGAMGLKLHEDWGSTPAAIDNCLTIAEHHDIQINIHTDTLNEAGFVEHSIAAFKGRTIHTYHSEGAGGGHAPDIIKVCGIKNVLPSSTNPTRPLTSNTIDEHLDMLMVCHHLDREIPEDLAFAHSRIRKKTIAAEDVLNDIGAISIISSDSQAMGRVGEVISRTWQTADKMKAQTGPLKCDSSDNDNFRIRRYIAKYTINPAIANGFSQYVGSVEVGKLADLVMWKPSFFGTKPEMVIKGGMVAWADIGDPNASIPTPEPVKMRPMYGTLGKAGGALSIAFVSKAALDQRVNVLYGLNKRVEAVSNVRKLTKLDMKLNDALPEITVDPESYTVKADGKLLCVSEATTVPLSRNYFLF
row,Substance,Activity
1,TRIPHENYLBISMUTHINE,Active
2,tris(4-fluorophenyl)bismuthine,Active
3,[sequence],Active
4,difluorotris(4-methylphenyl)bismuthane,Active
5,ethyl 4-{bis[4-(ethoxycarbonyl)phenyl]bismuthanyl}benzoate,Active
6,tris(4-fluorophenyl)bismuth dichloride,Active
7,trip-tolylbismuthine,Active
8,difluorotris(4-fluorophenyl)bismuthane,Active

# The remaining lines, values ahead:
row,Activity,Substance
1,Active,difluorotris[4-(trifluoromethyl)phenyl]bismuthane
2,Active,tris(4-(trifluoromethyl)phenyl)bismuthine
3,Active,4-[bis(4-cyanophenyl)difluorobismuthanyl]benzonitrile
4,Active,4-[bis(4-cyanophenyl)bismuthanyl]benzonitrile
5,Active,"difluorotris(2,4,6-trimethylphenyl)bismuthane"
6,Active,ethyl 4-{bis[4-(ethoxycarbonyl)phenyl]difluorobismuthanyl}benzoate
